Measured values from US5744499A, “Apoptosis-modulating factors influencing the intracellular concentration of methional/malondialdehyde” (Centre International de Recherches Dermatologiques Galderma, priority 1994, dated 1998).

Tests used:
HeLa cells [1] = assay: Effect of metabolites on the growth of HeLa cells; format: cell-based; details: Homo sapiens, 72 h, three days at 37° C., estimated by protein content, average of 3 or 4 experiments, read-out: IC50 (concentration required to inhibit cell growth by 50%)
Protocol: HeLa cells (0.5×10^6 per Petri dish) were cultured in 3 ml of a minimum essential Eagle medium containing 10% by weight dialyzed fetal calf serum. After four hours, methional (10 μM-1 mM), methionol (10 μM-20 mM), methylthiopropionic acid (MTPA) (1 μM-20 mM), L-methionine (1 μM-20 mM) or 4-methylthio-2-oxobutanoic acid (MTOB) (1 μM-20 mM) were added to each of the three dishes. After three days at 37° C., the cells were washed twice in a buffered, phosphatized saline medium having a pH of 7.5 (PBS medium) and collected in the same type of buffer.
Cell growth was assessed by measuring protein content (see technique described in O. H. Lowry, N. J. Rosebrouh, A. L. Farr, and R. J. Randall, J. Biol. Chem., 193, 265-275 (1951)) or the DNA content in the lysate using a bisbenzimide trihydrochloride solution (Hoechst 33258) (see W. D. Jarvis, R. N. Kolesnick, F. A. Fornari, R. S. Traylor, D. A. Gewirtz, and S. Grant, Proc. Natl. Acad. Sci. USA, 91, 73-77 (1994)), or by determining […] using 3-(4,5-dimethylthiazol-2-yl)-2,5-diphenyl-tetrazolium bromide (MTT) (see T. Mosmann, J. of Immunology, Methods, 65, 55-63 (1983)).
Each value of is the average of 3 or 4 experiments as estimated by protein content.
IC50 represents the concentration of compound required to inhibit cell growth by 50%.

HeLa cells [2] = assay: 2-oxobutyrate reversal of MTOB-induced growth inhibition of HeLa cells (methionine-free medium); format: cell-based
Protocol: HeLa cells (0.5×10^6 per Petri dish) were cultured in 3 ml of a minimum essential Eagle medium not containing methionine and containing 10% by weight dialyzed fetal calf serum. After four hours, 2-oxobutyrate (10 mM-40 mM) in the presence of 2 mM 4-methylthio-2-oxobutanoic acid (MTOB) were added. After three days at 37° C., the cells were washed twice in a buffered, phosphatized saline medium having a pH of 7.5 (PBS medium) and collected in the same type of buffer. Cell growth was measured in the same manner as in the preceding example.
Beginning at a level of 10 mM 2-oxobutyrate, inhibition decreased 2-3 times.

BAF3 cells [3] = assay: Apoptosis of BAF3 cells, terminal deoxynucleotidyl transferase (TdT) test, flow cytometry; format: cell-based, mouse; details: 24 hours; compound A 50 μM, BCNU 40 μg/ml, or both; control 0.2
Protocol: Effect of BCNU and of an inhibitor of the transaminase implicated in the transformation of 4-methylthio-2-oxobutanoic acid into methionine on apoptosis:
The DNA strand cuttings were marked with biotinylated dUTP (detected by avidin fluorescein), in situ, in the cells rendered permeable and fixed using the terminal DNA transferase deoxynucleotidyl test (TdT), as described in Gorczyca et al, Cancer Res., 53, 1945-1951 (1993). 1.5×10^6 BAF3 cells (cell line described above) seeded in 3 ml of a culture medium containing IL3 (Dulbecco-modified Eagle medium containing 6% fetal calf serum and 5% of a medium treated with Wehl-3B cells used in the IL3 source). The cells were incubated in the presence of compound A in a concentration of 50 μM, 40 μg/ml of BCNU, and the mixture of these two compounds (50 μM of compound A+40 μg/ml of BCNU) or in the absence of these two compounds (control). After a 24-hour incubation period of time, the cells were washed in PBS buffer and fixed in formaldehyde, then in ethanol, and maintained a -20° C. for 3 days. Next, the cells were again placed in suspension in 50 μl of a solution containing […] sodium cacodylate, pH=7.5, 1 mM CoCl2, 0.1 mM dithiothreitol, 0.05 mg/ml Bovine Serum Albumin, 10 units TdT (from Boerhringer calf thymus), 0.5 nmol dCTP, and 0.5 nmol dGTP for one hour at 37° C. […]

[4] = tested on: reactive oxygenated substances (H2 O2 and HO^-); assay: Production of reactive oxygenated substances (H2O2 and HO-) in BAF3 cells, DCFH-DA flow cytometry; format: cell-based, mouse; details: for Fluorescence/10^6 cells: compound A 0 μM
[5] = tested on: murine B16 Fl melanoma cells; assay: Survival of mice grafted with B16 melanoma cells; format: in vivo, mouse; details: BCNU 0.1 mg/kg, Compound A 25 mg/kg
Protocol: At t=0 day, 10^5 murine B16 Fl melanoma cells were injected into B6D2Fl mice (from the IFFA CREDO Company, France).
Table 5 reports the results corresponding to averages of the results obtained on three treated mice.
For the regimens containing multiple compounds, the quantities of each of the compounds used were identical to those of the regimens using the compounds by themselves.
Survival time was recorded beginning at t=0 day, as indicated above.
BCNU corresponds to N,N-Bis(2-chloroethyl)-N-nitrosourea. Compound A corresponds to the compound having formula (9), wherein X is a --OH radical.
Between the two regimens, the latter (to which methional was added) accounted for one-third of the mice surviving more than 60 days. The "average survival time" is the mean of the number of mice dying over the course of the experiment, i.e., within 60 days.
The procedure of the previous example was repeated, but the regimens and numbers of mice treated varied.
With respect to this latter regiment, the quantities corresponded to the quantities of compounds used alone. The percentage of long-term survivors corresponded to the percentage of mice which survived beyond 60 days.

BAF3-bcl2 cells = tested on: BAF3-bcl2 cells
Protocol: (§1) The cells used were identical to those in the preceding example.
(§2) [^14 C]MTOB was prepared by oxidative deamination of [^14 C]Methionine, as described in Ogier et al, Biochem. Pharmacol., 45, 1631-1644 (1993). [^14 C]MTOB (5×10^6 dpm corresponding to 38.2 nmol) was added to a cellular BAF3-bO or BAF3-bcl2 suspension (2.4×10^5 cells/ml) in DMEM containing 6% fetal calf serum and 5% IL3. 39 hours later, the cells were washed twice in PBS and placed in suspension at a concentration of 9×10^5 cells/ml. [U ^14 C]MTOB (1.9×10^6 dpm corresponding to 14.5 nmol) was added to 10^8 cells, and, eight hours later, the cells were collected by centrifugation at 400 g for five minutes. The cellular sediments were solubilized using 1.5 ml of 0.5N NaOh for 30 minutes at 60° C. The total radioactivity in the cells was measured on 10 μl aliquots. Next, perchloric acid in a final concentration of 0.5N, then 200 μmol of 2,4-DNPH (2,4-dinitrophenylhyrazine, marketed by Merck) were added to the alkaline hydrolyzate obtained. The mixture was heated to 70° C. for 30 minutes, then centrifuged at 400 g for five minutes. The precipitate was solubilized ion 1 ml of 0.5N NaOH, and the radioactivity and protein content were determined. NaOH, pH=10, was added to the supernatant. The marked metabolites were extracted in ethylene acetate, and the organic phase was dried, acidified, and extracted in dichloromethane. The marked metabolites in the organic phase were separated out and identified using high-performance thin-layer chromatography and compared to the 2,4-DNPH derivatives of the reference compounds, then quantified by radiochromatography.

BAF3-bO cells = tested on: BAF3-bO cells
Protocol: as §1, §2

BAF3 cells [6] = assay: DNA fragmentation in BAF3 cells, agarose gel electrophoresis; format: cell-based, mouse; details: 200-800 μM, medium with IL3, 8 hours
Protocol: K. L. Collins, J. Marvel, […] A. Lopez-[…]. Exp. Med., 176, 1043-1051 (1992)]. […] After 8 hours of contact, the cells were washed three times in a phosphatized buffered saline medium, pH=7.5 (PBS medium). […] The supernatants were decanted and analyzed as indicated below. For purposes of comparison, the same cultures were grown in a medium, either with IL3 (+IL3) or without IL3 (-IL3). The DNA fragments obtained were analyzed qualitatively using the method described, in particular, in W. D. Jarvis, […], and S. Grant, Proc. Natl. Acad. Sci. USA, 91, 73-77 (1994). The supernatants were treated with ribonuclease A (20 μg/ml) for 1 hour at 37° C., and with the proteinase R (100 μg/ml). The DNA was purified using phenol extraction and precipitated with ethanol. […] After electrophoresis (60V, 3 hours), the gels were stained with ethydium bromide.

[7] = Table 5, three mice, daily injection for 15 days, Methional 25 mg/kg, control 20.5

## CSCCC(=O)O [MTPA, methylthiopropionic acid]
HeLa cells [1]
  IC50: 10 mM

## CCC(=O)C(=O)O [2-oxobutyrate]
HeLa cells [2]; beginning at 10 mM 2-oxobutyrate, with 2 mM MTOB
  decrease of growth inhibition: 2-3 times

## CSCCC(NCc1c(CO)cnc(C)c1O)C(=O)OC(C)(C)C (stereo not drawn) [Compound A]
BAF3 cells [3]
  % apoptotic cells: 0.3%
[4]; compound A 50 μM with BCNU
  effect on increase of HO^- resulting from increased BCNU concentration: suppressed the increase of HO^-
[5]; [7]
  Average Survival Time: 21.9 days

## CSCC[C@H](N)C(=O)O [L methionine, L-methionine]
HeLa cells [1]
  IC50: > 20 mM

## O=NN(CCCl)C(=O)NCCCl [BCNU, N,N-Bis(2-chloroethyl)-N-nitrosourea]
BAF3 cells [3]
  % apoptotic cells: 2.3%
[4]; BCNU 10 μg/ml
  Fluorescence/10^6 cells: 4%
[4]; BCNU 20 μg/ml
  Fluorescence/10^6 cells: 4%
[4]; BCNU 40 μg/ml
  Fluorescence/10^6 cells: 10%
[5]; [7]
  Average Survival Time: 24.5 days
[5]; Table 6, 6 or 10 mice, Methional 50 mg/kg, control 0
  % long-term survivors (mice surviving beyond 60 days): 0%
[5]; Table 6, 6 or 10 mice, Methional 50 mg/kg, control 23.7
  Average Survival Time: 32.5 days

## CSCCC(=O)C(=O)O [[^14 C]MTOB]
BAF3-bcl2 cells; BAF3-bcl2
  2,4-DNPH malondialdehyde (2,4-DNPH pyrazole): 0 dpm/mg of DNA
  2,4-DNPH methional: 7,650 dpm/mg of DNA
  Free methional: 51,440 dpm/mg of DNA
  Spec. activity of cellular proteins: 20,850 dpm/mg protein
BAF3-bcl2 cells; BAF3-bcl2, incubation 47 hours
  Total radioactivity/mg of DNA: 1,111,000 /mg of DNA
BAF3-bcl2 cells; BAF3-bcl2 cell extracts
  marked malondialdehyde formation, result in words: no radioactivity with respect to the malondialdehyde was detected
BAF3-bcl2 cells; BAF3-bcl2 compared with BAF3-bO
  increase in radioactivity of free methionine (printed metmonine) in BAF3-bcl2 versus BAF3-bO cells: 40%
BAF3-bO cells; BAF3-bO
  2,4-DNPH malondialdehyde (2,4-DNPH pyrazole): 800 dpm/mg of DNA
  2,4-DNPH methional: 14,050 dpm/mg of DNA
  Free methional: 36,820 dpm/mg of DNA
  Spec. activity of cellular proteins: 23,500 dpm/mg protein
BAF3-bO cells; BAF3-bO compared with BAF3-bcl2
  radioactivity in methional higher in BAF3-bO than in BAF3-bcl2 cells: 80%
BAF3-bO cells; BAF3-bO, incubation 47 hours
  Total radioactivity/mg of DNA: 1,252,000 /mg of DNA

## CSCCCO [methionol]
HeLa cells [1]
  IC50: > 20 mM

## CCCO [propanol]
BAF3 cells [6]
  triggering of apoptosis (ladder of DNA fragments of 180 to 200 base pairs on gel): the gel did not possess this characteristic

## CSCCC(=O)C(=O)O [MTOB, 4-methylthio-2-oxobutanoic acid]
HeLa cells [1]
  IC50: 1.6 mM
HeLa cells [2]; Homo sapiens, HeLa, 72 h, 2 mM MTOB alone, three days at 37° C.
  inhibition at 2000 µM: 72%
